Test results reported in patent US9958436B2, “Determination of cell chirality” (THE TRUSTEES OF COLUMBIA UNIVERSITY IN THE CITY OF NEW YORK, priority 2011, dated 2018).
Entries after “also recorded” stand apart in the source; their conditions may differ.

Experiments:
C2C12 cells [1] = assay: Cell chirality (alignment) on micropatterned rings, drug treatment, C2C12; assay type: cell-based, mouse; conditions: for CCW: counter-clockwise alignment / CW: clockwise alignment / N/S: not significantly biased to CW or CCW: C2C12 on ring patterns, count of rings
Method: (§1) Cells were maintained in tissue flasks with culture media specified in TABLE 2. After reaching 70% confluency, cells were trypsinized and seeded onto protein-coated patterned surfaces. Once the cells attached, extra cells were washed off with fresh medium. At this time drugs were added into the culture medium if necessary. Phase contrast images were taken after overnight incubation at 37° C. and 5% CO2 when cells reached confluency on the ring patterns.
(§2) To examine the role of actin in left-right (LR) asymmetry, cells were tested with 20-500 nM Latrunculin A, 0.05-1.0 μg/ml Cytochalasin D, and 1-100 nM Jasplakinolide. Latrunculin A inhibits actin polymerization by forming a 1:1 molar complex with G-actin, thereby inhibiting its ability to polymerize into F-actin (M. Coue, S. L. Brenner, I. Spector, E. D. Korn, FEBS Lett 213, 316 (Mar. 23, 1987)). Cytochalasin D inhibits actin polymerization by binding to the growing ends of F-actin chains and thus preventing the attachment and addition of G-actin monomers (J. A. Cooper, J Cell Biol 105, 1473 (October, 1987)). Jasplakinolide is known to bind to and stabilize actin filaments in vitro (M. R. Bubb, I. Spector, B. B. Beyer, K. M. Fosen, J Biol Chem 275, 5163 (Feb. 18, 2000)).
(§3) To examine the role of microtubules in LR asymmetry, 0.2-2 μM Nocodazole, and 0.3-30 nM Taxol were used. Nocodazole suppresses microtubule dynamics by destabilizing and disassembling microtubules (J. A. Cooper, J Cell Biol 105, 1473 (October, 1987)). Taxol inhibits the microtubule depolymerization and stabilizes microtubules (W. B. Derry, L. Wilson, M. A. Jordan, Biochemistry 34, 2203 (Feb. 21, 1995)).
To examine the role of the actomyosin motor, cells were tested with […], […], and 0.5-10 […]. Y-27632 works as a selective inhibitor to prevent the phosphorylation of the myosin regulatory light chain (T. Ishizaki et al., Mol Pharmacol 57, 976 (May, 2000)). ML-7 acts as a selective inhibitor of the myosin light chain kinase (M. Isemura, T. Mita, K. Satoh, K. Narumi, M. Motomiya, Cell Biol Int Rep 15, 965 (October, 1991)). Blebbistatin forms a low actin affinity complex through binding to myosin heads, causing the inhibition of nonmuscle myosin II ATPase activity (M. Kovacs, J. Toth, C. Hetenyi, A. Malnasi-Csizmadia, J. R. Sellers, J Biol Chem 279, 35557 (Aug. 20, 2004)).
(§4) High-resolution phase contrast images of live patterned cells were taken at a resolution of ˜0.645 μm/pixel, and analyzed using a custom-written code in MatLab (MathWorks, Natick, Mass.), based on the automated detection of intensity gradient and circular statistics (W. J. Karlon et al., Ann Biomed Eng 27, 712 (November-December, 1999)). In this algorithm, the intensity gradient was determined pixel by pixel with a Gaussian differential filter. In each sub-region of the image, the dominant local direction was determined using an accumulator scheme, in which the orientation of each pixel follows a von Mises distribution, a circular analogue of the linear normal distribution. Subsequently, the orientation in each sub-region was converted into an angle bias based on its deviation from the circumferential direction (see e.g., FIG. 2C). Mean angle and standard deviation of LR asymmetry were calculated for all sub-regions, using circular statistics (N. I. Fish, Statistical Analysis of Circular Data. (Cambridge University Press, Cambridge, UK, 1993)). […] The sub-region size was therefore set to 20 by 20 pixels (i.e., 13 by 13 μm).
(§5) Cell chirality on ring patterns (i.e., clockwise or counterclockwise alignment) was determined from calculated biased angles in local regions with one sample test for the mean angle, analogous to the one sample t-test in linear statistics (N. I. Fish, Statistical Analysis of Circular Data. (Cambridge University Press, Cambridge, UK, 1993)).

hUVEC cells = assay: Cell chirality (alignment) on micropatterned rings, drug treatment, hUVEC; assay type: cell-based, human; conditions: hUVEC on ring patterns, count of rings
Method: as §1, §2, §3, §4, §5

skin tumor cancer cells = assay: Cell chirality on patterned substrates, skin tumor cancer cells, actin interfering reagent; assay type: cell-based, human; conditions: count of patterns
Method: as §4, §5
Experiments were conducted to determine whether cancer cell chirality depends on actin function. Skin cancer cells were treated with actin interfering reagent Lantrunculin A at 0 nM (control), 20 nM, 50 nM, 100 nM, or 200 nM.

C2C12 cells [2] = assay: Cell polarization by organelle positioning relative to ring boundaries (immunofluorescence); assay type: cell-based, mouse; conditions: C2C12 on rings; centrosome vs nucleus position
Method: After imaging, cells were fixed with 4% formaldehyde in cytoskeletal buffer (10 mM MES, 138 mM KCl, 3 mM MgCl2, 2 mM EGTA, and 0.32 M sucrose) for 25 minutes. For actin/tubulin double staining, the cells were incubated with phalloidin-TRITC (1:400; Invitrogen) and anti-Tubulin-FITC (1:50; Sigma) for 1 hour. For the Golgi apparatus positioning inside patterned rings, the cells were incubated in 1 μg/ml anti-human golgin-97 (Invitrogen) for 1 hour. After secondary antibodies, cell nuclei were stained with 200 ng/ml 40, 6-diamidino-2-phenylindole (DAPI; Sigma) for 10 minutes. Finally, the cells were mounted with Fluoromount-G medium (SouthernBiotech, Birmingham, Ala.).

C2C12 cells [3] = assay: Analysis of cell migration on ring patterns (time-lapse, digital image correlation); assay type: cell-based, mouse; conditions: C2C12 treated
Method: For time-lapse videos, cells were patterned on a gold-coated glass-bottom Petri dish (ibid, München, Germany). After cells attached, the dish was transferred into an environmental chamber (37° C. and 5% CO2) and image time series were recorded every 5 minutes at a resolution of 1.56 μm/pixel for a total time of 20-40 hours. As the image capture rate is much higher than the characteristic time for cell migration, digital image correlation, together with sub-pixel displacement estimation, were used to determine the displacements of cell migration. A FFT (fast Fourier transform)-based method was first utilized to match regions of two sequential phase contrast images. The calculated displacement values were then used as inputs for a more accurate estimation of displacement fields at a sub-pixel level, using a second-order image correlation algorithm described previously (P. Zhou, K. E. Goodson, Opt Eng 40, 1613 (August, 2001)). To evaluate the bias of cell migration, the obtained velocity field was further projected in the circumferential (Vθ) and radial (Vr) direction.

**Q.** What does the source list for `C/C1=C/C(=O)O[C@@H]2C[C@@H](CC[C@H](C)/C=C\C=C\CC1)O[C@@](O)([C@@H]1CSC(=O)N1)C2` [Latrunculin A]?
**A.** CCW: counter-clockwise alignment (C2C12 cells [1]; drug 50 nM): 2; CW: clockwise alignment (C2C12 cells [1]; drug 50 nM): 61; N/S: not significantly biased to CW or CCW (C2C12 cells [1]; drug 50 nM): 15; CCW: counter-clockwise alignment (C2C12 cells [1]; drug 200 nM): 0; CW: clockwise alignment (C2C12 cells [1]; drug 200 nM): 57; N/S: not significantly biased to CW or CCW (C2C12 cells [1]; drug 200 nM): 7; CCW: counter-clockwise alignment (C2C12 cells [1]; drug 500 nM): 0; CW: clockwise alignment (C2C12 cells [1]; drug 500 nM): 1; N/S: not significantly biased to CW or CCW (C2C12 cells [1]; drug 500 nM): 10; effect on chirality of C2C12 cells (C2C12 cells [1]; low concentrations of the actin treadmilling inhibitors): reversed the chirality of C2C12 cells from CCW into CW; CCW: counter-clockwise alignment (hUVEC cells; drug 20 nM): 0; CW: clockwise alignment (hUVEC cells; drug 20 nM): 36; N/S: not significantly biased to CW or CCW (hUVEC cells; drug 20 nM): 8; CCW: counter-clockwise alignment (hUVEC cells; drug 50 nM): 0; CW: clockwise alignment (hUVEC cells; drug 50 nM): 2; N/S: not significantly biased to CW or CCW (hUVEC cells; drug 50 nM): 19; CCW: counter-clockwise alignment (hUVEC cells; drug 200 nM): 5; CW: clockwise alignment (hUVEC cells; drug 200 nM): 2; N/S: not significantly biased to CW or CCW (hUVEC cells; drug 200 nM): 56; CCW: counter-clockwise alignment (hUVEC cells; drug 500 nM): 1; CW: clockwise alignment (hUVEC cells; drug 500 nM): 2; N/S: not significantly biased to CW or CCW (hUVEC cells; drug 500 nM): 42; CCW: counter-clockwise alignment (skin tumor cancer cells; 20 nM): 0; CW: clockwise alignment (skin tumor cancer cells; 20 nM): 21; N/S: not significantly biased to CW or CCW (skin tumor cancer cells; 20 nM): 4; CCW: counter-clockwise alignment (skin tumor cancer cells; 50 nM): 1; CW: clockwise alignment (skin tumor cancer cells; 50 nM): 28; N/S: not significantly biased to CW or CCW (skin tumor cancer cells; 50 nM): 2; CCW: counter-clockwise alignment (skin tumor cancer cells; 100 nM): 0; CW: clockwise alignment (skin tumor cancer cells; 100 nM): 32; N/S: not significantly biased to CW or CCW (skin tumor cancer cells; 100 nM): 0; CCW: counter-clockwise alignment (skin tumor cancer cells; 200 nM): 2; CW: clockwise alignment (skin tumor cancer cells; 200 nM): 8; N/S: not significantly biased to CW or CCW (skin tumor cancer cells; 200 nM): 3; effect on cell polarization (organelle positioning relative to boundaries) (C2C12 cells [2]): did not alter cell polarization; also recorded: does not change the polarity of C2C12 cells; direction of cell migration at the boundaries (C2C12 cells [3]; versus untreated): reversal at the boundaries; cell migration velocity at the ring boundaries (C2C12 cells [3]; CW along the outer ring and CCW along the inner ring): 15 μm/hr
